# Entries after “also recorded” stand apart in the source; their conditions may differ.
# Legend:
# [1] = tested on: rat embryonic cortical neurons; experiment: Dendritogenesis (Sholl analysis) in cultured cortical neurons; format: cell-based
# Experimental: Embryonic rat cortical neurons were treated for a short period of time (1 h) followed by a suitable growth period (71 h) to measure the psychoplastogenic effects of the compounds described herein. […] Therefore, the effects of ibogalogs 8-17 on dendritic growth was assessed.
# Dendritogenesis Experiments. For the dendritogenesis experiments conducted using cultured cortical neurons, timed pregnant Sprague Dawley rats were obtained from Charles River Laboratories (Wilmington, MA). Full culturing, staining, and analysis details were performed as previously described. (Dunlap, L. et al., 2019)
# larval zebrafish [2] = experiment: Larval zebrafish movement activity during a battery of light and acoustic stimuli
# Text: Stimuli applied over time are indicated under the heatmaps. Colors indicate bright LED light of respective colors, black traces represent the waveforms of acoustic stimuli, and gray vertical lines indicate physical tapping as secondary acoustic stimuli.
# Response is […] proportional to classification accuracy; 0-20% indicates no ability and 100% indicates perfect classification. […] The solid line denotes the median and the shading denotes a 95th percentile confidence interval calculated by bootstrap. N=8 wells/condition (64 animals/condition).
# human 5-HT2A receptors = human 5-HT2A receptors (Homo sapiens, UniProt P28223); experiment: 5-HT2A Gq-mediated calcium flux functional assay (human); format: cell-based
# Experimental: (§1) Serotonin and Opioid Receptor Functional Assays. Functional assay screens at 5-HT and opioid receptors were performed in parallel using the same compound dilutions and 384-well format high-throughput assay platforms. Assays assessed activity at all human isoforms of the receptors, except where noted for the mouse 5-HT2A receptor. Receptor constructs in pcDNA vectors were generated from the Presto-Tango GPCR library with minor modifications. All compounds were serially diluted in drug buffer (HBSS, 20 mM HEPES, pH 7.4 supplemented with 0.1% bovine serum albumin and 0.01% ascorbic acid) and dispensed into 384-well assay plates using a FLIPR^TETRA (Molecular Devices). Every plate included a positive control such as 5-HT (for all 5-HT receptors), DADLE (DOR), salvinorin A (KOR), and DAMGO (MOR). For measurements of 5-HT2A, 5-HT2B, and 5-HT2C Gq-mediated calcium flux function, HEK Flp-In 293 T-Rex stable cell lines (Invitrogen) were loaded with Fluo-4 dye for one hour, stimulated with compounds and read for baseline (0-10 seconds) and peak fold-over-basal fluorescence (5 minutes) at 25° C. on the FLIPR^TETRA. For measurement of 5-HT6 and 5-HT7a functional assays, Gs-mediated cAMP accumulation was detected using the split-luciferase GloSensor assay in HEKT cells measuring luminescence on a Microbeta Trilux (Perkin Elmer) with a 15 min drug incubation at 25° C. […]
# [3] = tested on: opioid receptors (MOR, KOR, DOR); experiment: Opioid receptor functional assays (Gi/o-mediated cAMP inhibition); format: cell-based, human
# Experimental: as §1
# 5-HT1A = target: T1, 5-HT1A (Homo sapiens, UniProt P08908); experiment: 5-HT1A functional assay (Gi/o-mediated cAMP inhibition); format: cell-based
# T1 construct: expressed in transfected cells; host or cells: HEKT cells (GloSensor cAMP assay)
# T1 sequence (P08908 1-422): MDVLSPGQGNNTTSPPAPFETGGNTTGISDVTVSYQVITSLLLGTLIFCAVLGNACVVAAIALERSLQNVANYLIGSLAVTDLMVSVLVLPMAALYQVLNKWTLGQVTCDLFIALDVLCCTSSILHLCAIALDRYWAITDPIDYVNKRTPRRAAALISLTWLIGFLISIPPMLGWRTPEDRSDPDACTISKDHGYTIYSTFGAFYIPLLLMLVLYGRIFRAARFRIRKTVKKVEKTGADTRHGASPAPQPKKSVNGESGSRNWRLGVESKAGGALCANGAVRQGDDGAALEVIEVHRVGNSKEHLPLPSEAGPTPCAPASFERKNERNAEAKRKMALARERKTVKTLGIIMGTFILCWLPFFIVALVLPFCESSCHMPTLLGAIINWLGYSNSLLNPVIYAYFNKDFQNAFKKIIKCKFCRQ
# Experimental: as §1
# [4] = tested on: rat embryonic cortical neurons (DIV20); experiment: Spinogenesis in mature cortical cultures (DIV20); format: cell-based; conditions: DIV20, treatment for 24 h
# Experimental: Spinogenesis Experiments. Spinogenesis experiments were performed as previously described with the exception that cells were treated on DIV19 and fixed 24 h after treatment on DIV20. (Ly, C. et al., 2018) The images were taken on a Nikon HCA Confocal microscope a with a 100×/NA 1.45 oil objective. DMSO and ketamine (10 μM) were used as vehicle and positive controls, respectively.
# [5] = tested on: mouse primary sensory cortex; experiment: In vivo spine dynamics, transcranial 2-photon imaging; conditions: 24 h after i.p. dose; TBG 50 mg/kg, DOI 10 mg/kg
# Experimental: In Vivo Spine Dynamics. Male and female Thy1-GFP-M line mice (n=5 per condition) were purchased from The Jackson Laboratory (JAX #007788) and maintained in UCSC animal facilities according to an IACUC approved protocol. In vivo transcranial two-photon imaging and data analysis were performed as previously described. Briefly, mice were anesthetized with an intraperitoneal (i.p.) injection of a mixture of ketamine (87 mg/kg) and xylazine (8.7 mg/kg). A small region of the exposed skull was manually thinned down to 20-30 μm for optical access. Spines on apical dendrites in mouse primary sensory cortices were imaged using a Bruker Ultima IV two-photon microscope equipped with an Olympus water-immersion objective (40×, NA=0.8) and a Ti:Sapphire laser (Spectra-Physics Mai-Tai, excitation wavelength 920 nm). Images were taken at a zoom of 4.0 (pixel size 0.143×0.143 μm) and Z-step size of 0.7 μm. The mice received an i.p. injection (injection volume=5 mL/kg) of DOI (10 mg/kg) or TBG (50 mg/kg) immediately after they recovered from anesthesia given prior to the first imaging session. The animals were re-imaged 24 h after drug administration. Dendritic spine dynamics were analyzed using ImageJ. Spine formation and elimination were quantified as percentages of spine number on day 0.
# physchem = conditions: saline or isotonic
# larval zebrafish [6] = experiment: Heart rate and arrhythmia in immobilized larval zebrafish
# Sequence of human 5-HT2A receptors (P28223 whole entry, canonical isoform): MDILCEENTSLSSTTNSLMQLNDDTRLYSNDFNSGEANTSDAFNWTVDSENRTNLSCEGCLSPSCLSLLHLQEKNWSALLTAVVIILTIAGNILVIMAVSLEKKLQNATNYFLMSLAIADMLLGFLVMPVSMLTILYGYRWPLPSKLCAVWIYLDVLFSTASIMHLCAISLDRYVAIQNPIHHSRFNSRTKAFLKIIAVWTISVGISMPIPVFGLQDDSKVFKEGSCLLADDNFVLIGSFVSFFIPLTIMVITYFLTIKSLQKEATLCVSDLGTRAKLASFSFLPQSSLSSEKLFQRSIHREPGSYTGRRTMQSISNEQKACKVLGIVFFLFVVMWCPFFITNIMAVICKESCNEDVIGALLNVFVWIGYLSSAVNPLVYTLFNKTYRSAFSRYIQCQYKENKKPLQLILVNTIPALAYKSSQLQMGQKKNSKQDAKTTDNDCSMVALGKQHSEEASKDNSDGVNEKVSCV
structure (smiles),measurement,setting,value
COc1ccc2c3c([nH]c2c1)CCN(C)CC3 [TBG],"dendritic arbor complexity (Sholl analysis, Nmax)",[1]; DIV6,increased dendritic arbor complexity
same,effect on dendritic growth after pretreatment with ketanserin (5-HT2A antagonist),[1]; ketanserin pretreatment,blocked by the 5-HT2A antagonist ketanserin; also recorded: completely abrogated its effects
same,behavioral phenotype at highest concentration versus lethal control,larval zebrafish [2]; 200 μM,did not produce this phenotype
same,"behavioral phenotype with increasing concentration versus vehicle and lethal control (eugenol, 100 μM)","larval zebrafish [2]; 1 h treatment, concentration-response",do not produce movement responses in larval zebrafish similar to a lethal concentration of eugenol
same,machine learning classification of movement responses,larval zebrafish [2]; highest concentrations (200 μM),"more similar to vehicle controls than to ibogaine, noribogaine, or lethal controls"
same,agonist activity at human 5-HT2A receptors,human 5-HT2A receptors,potent agonist activity
same,opioid agonist activity,[3],weak or no opioid agonist activity
same,5-HT1A agonist activity compared to 5-MeO-DMT,5-HT1A,weaker 5-HT1A and 5-HT2C agonist activity
same,dendritic spine density,[4],increases dendritic spine density to a comparable extent as ibogaine
same,spine elimination,[5],no effect on spine elimination; also recorded: Neither TBG nor DOI affected spine elimination
same,spine formation,[5],increased spine formation
same,solubility,physchem,≥ 40 mg/mL
same,heart rate (bradycardia),larval zebrafish [6],Neither IBG nor TBG induced these undesirable phenotypes; also recorded: do not induce bradycardia
same,likelihood of arrhythmias (ratio of atrium to ventricle BPM),larval zebrafish [6],Neither IBG nor TBG induced these undesirable phenotypes

# Reference: patent publication US12325710B2, “Substituted 1,2,3,4,5,6-hexahydroazepino[4,5-b]indoles for treating brain disorders” (priority 2019, dated 2025)
